Reference: patent US8785457B2 (Cellzome Limited, priority 2009, dated 2014)
Read-outs that look alike come from different tables or passages of the source.

Assays:
[1] = biological target: T1, DNA-dependent protein kinase (DNA-PK) (Homo sapiens, UniProt P78527); assay: kinobeads assay, DNA-PK; type: binding
T1 construct: endogenous in cells; host or cells: Jurkat, clone E6-1 (ATCC TIB-152) cell lysate
Method in brief: (§1)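 Competitive binding in Jurkat cell lysate (5 mg/ml total protein): test compounds at various concentrations competed with beads bearing immobilized phenylmorpholin-chromen ligand. Bead-bound kinases were eluted and quantified by antibody dot blot with infrared detection; IC50 values came from dose-response curves.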

[2] = test system: S6RP serine-240/244 phosphorylation; assay: In vitro Phospho-S6 cellular assay (pS6RP S240/244) in HEK293T/17 cells; type: cell-based; settings: Homo sapiens, 2 hours, read-out: pS6 IC50
Text: Activation of mTOR signaling results in phosphorylation of several downstream targets. In cells, mTOR exists in two different protein complexes. The mTOR Complex-1 (mTORC1) phosphorylates and activates S6 Kinase 1 (S6K1) and S6 Kinase 2 (S6K2) (also known as p70S6K) which then phosphorylate S6 Ribosomal Protein (S6RP) (also known as RPS6)3. S6RP is phosphorylated on serine 235, serine 236, serine 240 and serine 244 by both pS6K1 and pS6K2. The mTOR Complex-2 (mTORC2) phosphorylates AKT on serine 473 which activates the AKT signaling pathway.
The assay measures a test compound's inhibition of S6RP serine-240/244 phosphorylation and inhibition of Akt serine-473 phosphorylation in human embryonic kidney derived HEK293T/17 cells (ATCC CRL-11268).
The HEK293T/17 cell line is maintained in DMEM media (Invitrogen catalogue number 41965-039) supplemented with 10% FCS at 37° C. in a 5% CO2 humidified incubator.
Cells are seeded in 96-well plates at 40,000 cells/well (pS6RP S240/244 assay) or 80,000 cells/well (pAkt S473 assay) in 90 μl growth media (DMEM, 2% FCS). Plates are incubated for 1 hour in a humidified incubator to allow the cells to adhere. Cells are treated with 8 concentrations of test compounds or DMSO alone for controls (final DMSO concentration 0.1%) and incubated at 37° C. for 2 hours. Then 20 μl of 5× concentrated lysis buffer (750 mM NaCl, 100 mM Tris pH7.4, 5 mM ADTA, 5 mM EGTA, 5% Triton X-100) is added, plates are sealed and incubated for 15 minutes at 4° C. with gentle shaking. After cell lysis, 25 μl cell lysate is transferred to a MesoScale plate coated with an antibody to pS6RP Ser240/244 (MesoScale Discovery K150DGD-3) or an antibody to pAkt Ser 473 (MesoScale Discovery K151DGD-3). Plates have been blocked before by incubation with 150 μl MesoScale Discovery Blocking Solution-A for 1 hour at room temperature followed by washing with 150 μl 1× Tris wash buffer per well. After the transfer of the cell lysate to the MSD plate, the pS6RP (or pAkt) protein is captured on the coated antibody by incubation at room temperature for 1 hour with gentle shaking. After the capture step the plate is washed three times with 150 μl of 1× Tris wash buffer per well. Then 25 μl detection antibody conjugated with a Sulfo-Tag is added and incubated for 1 hour at room temperature with gentle shaking. Subsequently the antibody solution is removed and the plate is washed 3 times with 150 μl×Tris wash buffer per well and 150 μl Read buffer is added. The plates are analysed on a MSD 2400 Plate Reader (MesoScale Discovery). Data analysis is performed using nonlinear regression for a sigmoidal dose-response with a variable slope.

PI3K delta (PI3 Kd) = biological target: T2, PI3K delta (PI3 Kd) (Homo sapiens, UniProt O00329); assay: kinobeads assay, PI3K delta; type: binding
T2 construct: endogenous in cells; host or cells: Jurkat, clone E6-1 (ATCC TIB-152) cell lysate
Method in brief: as §1

PI3Kalpha (PI3Ka) = biological target: T3, PI3Kalpha (PI3Ka) (Homo sapiens, UniProt P42336); assay: kinobeads assay, PI3Kalpha; type: binding; settings: for Inhibition values (IC50) PI3Ka / IC50: kinobeads assay, Table 6; for IC50: read-out: Inhibition values (IC50) PI3Ka; for PI3Ka: Further Kinobeads Data
T3 construct: endogenous in cells; host or cells: cell lysate
Method in brief: (§2)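 Cell lysate aliquots are incubated with compound over a concentration range and with an affinity matrix of immobilized phenylmorpholin-chromen ligand. Beads are then removed, bound proteins eluted, and each kinase is quantified by multiplexed immunodetection to derive IC50 values.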

PI3 Kgamma (PI3 Kg) = biological target: T4, PI3 Kgamma (PI3 Kg) (Homo sapiens, UniProt P48736); assay: kinobeads assay, PI3Kgamma; type: binding
T4 construct: endogenous in cells; host or cells: cell lysate
Method in brief: as §2

mTOR = biological target: T5, mTOR (Homo sapiens, UniProt P42345); assay: mTOR kinobeads assay (competitive binding in Jurkat cell lysate, immunodetection)
T5 construct: endogenous in cells; host or cells: Jurkat, clone E6-1 (ATCC TIB-152) cell lysate
Method in brief: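 IC50 derived from dose-response curves of mTOR captured on immobilized phenylmorpholin-chromen beads, detected by antibody dot blot with infrared fluorescence.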

PI3 Kbeta (PI3 Kb) = biological target: T6, PI3 Kbeta (PI3 Kb) (Homo sapiens, UniProt P42338); assay: kinobeads assay, PI3Kbeta; type: binding
T6 construct: endogenous in cells; host or cells: cell lysate
Method in brief: as §2

[3] = kinobeads assay, Table 4, read-out: Inhibition values (IC50) DNA-PK
[4] = kinobeads assay, Table 6, read-out: Inhibition values (IC50) DNAPK
[5] = kinobeads assay, Table 4, read-out: Inhibition values (IC50) PI3Kd
[6] = kinobeads assay, Table 6, read-out: Inhibition values (IC50) PI3Kd
[7] = kinobeads assay, Table 6, read-out: Inhibition values (IC50) PI3Kg
[8] = kinobeads assay, Table 6, read-out: Inhibition values (IC50) mTOR
[9] = kinobeads assay, Table 6, read-out: Inhibition values (IC50) PI3Kb
[10] = Further Kinobeads Data, read-out: DNAPK
[11] = Further Kinobeads Data, read-out: PI3Kg
[12] = Further Kinobeads Data, read-out: PI3Kd
[13] = Further Kinobeads Data, read-out: mTor
[14] = Further Kinobeads Data, read-out: PI3Kb

T1 sequence (P78527 whole entry): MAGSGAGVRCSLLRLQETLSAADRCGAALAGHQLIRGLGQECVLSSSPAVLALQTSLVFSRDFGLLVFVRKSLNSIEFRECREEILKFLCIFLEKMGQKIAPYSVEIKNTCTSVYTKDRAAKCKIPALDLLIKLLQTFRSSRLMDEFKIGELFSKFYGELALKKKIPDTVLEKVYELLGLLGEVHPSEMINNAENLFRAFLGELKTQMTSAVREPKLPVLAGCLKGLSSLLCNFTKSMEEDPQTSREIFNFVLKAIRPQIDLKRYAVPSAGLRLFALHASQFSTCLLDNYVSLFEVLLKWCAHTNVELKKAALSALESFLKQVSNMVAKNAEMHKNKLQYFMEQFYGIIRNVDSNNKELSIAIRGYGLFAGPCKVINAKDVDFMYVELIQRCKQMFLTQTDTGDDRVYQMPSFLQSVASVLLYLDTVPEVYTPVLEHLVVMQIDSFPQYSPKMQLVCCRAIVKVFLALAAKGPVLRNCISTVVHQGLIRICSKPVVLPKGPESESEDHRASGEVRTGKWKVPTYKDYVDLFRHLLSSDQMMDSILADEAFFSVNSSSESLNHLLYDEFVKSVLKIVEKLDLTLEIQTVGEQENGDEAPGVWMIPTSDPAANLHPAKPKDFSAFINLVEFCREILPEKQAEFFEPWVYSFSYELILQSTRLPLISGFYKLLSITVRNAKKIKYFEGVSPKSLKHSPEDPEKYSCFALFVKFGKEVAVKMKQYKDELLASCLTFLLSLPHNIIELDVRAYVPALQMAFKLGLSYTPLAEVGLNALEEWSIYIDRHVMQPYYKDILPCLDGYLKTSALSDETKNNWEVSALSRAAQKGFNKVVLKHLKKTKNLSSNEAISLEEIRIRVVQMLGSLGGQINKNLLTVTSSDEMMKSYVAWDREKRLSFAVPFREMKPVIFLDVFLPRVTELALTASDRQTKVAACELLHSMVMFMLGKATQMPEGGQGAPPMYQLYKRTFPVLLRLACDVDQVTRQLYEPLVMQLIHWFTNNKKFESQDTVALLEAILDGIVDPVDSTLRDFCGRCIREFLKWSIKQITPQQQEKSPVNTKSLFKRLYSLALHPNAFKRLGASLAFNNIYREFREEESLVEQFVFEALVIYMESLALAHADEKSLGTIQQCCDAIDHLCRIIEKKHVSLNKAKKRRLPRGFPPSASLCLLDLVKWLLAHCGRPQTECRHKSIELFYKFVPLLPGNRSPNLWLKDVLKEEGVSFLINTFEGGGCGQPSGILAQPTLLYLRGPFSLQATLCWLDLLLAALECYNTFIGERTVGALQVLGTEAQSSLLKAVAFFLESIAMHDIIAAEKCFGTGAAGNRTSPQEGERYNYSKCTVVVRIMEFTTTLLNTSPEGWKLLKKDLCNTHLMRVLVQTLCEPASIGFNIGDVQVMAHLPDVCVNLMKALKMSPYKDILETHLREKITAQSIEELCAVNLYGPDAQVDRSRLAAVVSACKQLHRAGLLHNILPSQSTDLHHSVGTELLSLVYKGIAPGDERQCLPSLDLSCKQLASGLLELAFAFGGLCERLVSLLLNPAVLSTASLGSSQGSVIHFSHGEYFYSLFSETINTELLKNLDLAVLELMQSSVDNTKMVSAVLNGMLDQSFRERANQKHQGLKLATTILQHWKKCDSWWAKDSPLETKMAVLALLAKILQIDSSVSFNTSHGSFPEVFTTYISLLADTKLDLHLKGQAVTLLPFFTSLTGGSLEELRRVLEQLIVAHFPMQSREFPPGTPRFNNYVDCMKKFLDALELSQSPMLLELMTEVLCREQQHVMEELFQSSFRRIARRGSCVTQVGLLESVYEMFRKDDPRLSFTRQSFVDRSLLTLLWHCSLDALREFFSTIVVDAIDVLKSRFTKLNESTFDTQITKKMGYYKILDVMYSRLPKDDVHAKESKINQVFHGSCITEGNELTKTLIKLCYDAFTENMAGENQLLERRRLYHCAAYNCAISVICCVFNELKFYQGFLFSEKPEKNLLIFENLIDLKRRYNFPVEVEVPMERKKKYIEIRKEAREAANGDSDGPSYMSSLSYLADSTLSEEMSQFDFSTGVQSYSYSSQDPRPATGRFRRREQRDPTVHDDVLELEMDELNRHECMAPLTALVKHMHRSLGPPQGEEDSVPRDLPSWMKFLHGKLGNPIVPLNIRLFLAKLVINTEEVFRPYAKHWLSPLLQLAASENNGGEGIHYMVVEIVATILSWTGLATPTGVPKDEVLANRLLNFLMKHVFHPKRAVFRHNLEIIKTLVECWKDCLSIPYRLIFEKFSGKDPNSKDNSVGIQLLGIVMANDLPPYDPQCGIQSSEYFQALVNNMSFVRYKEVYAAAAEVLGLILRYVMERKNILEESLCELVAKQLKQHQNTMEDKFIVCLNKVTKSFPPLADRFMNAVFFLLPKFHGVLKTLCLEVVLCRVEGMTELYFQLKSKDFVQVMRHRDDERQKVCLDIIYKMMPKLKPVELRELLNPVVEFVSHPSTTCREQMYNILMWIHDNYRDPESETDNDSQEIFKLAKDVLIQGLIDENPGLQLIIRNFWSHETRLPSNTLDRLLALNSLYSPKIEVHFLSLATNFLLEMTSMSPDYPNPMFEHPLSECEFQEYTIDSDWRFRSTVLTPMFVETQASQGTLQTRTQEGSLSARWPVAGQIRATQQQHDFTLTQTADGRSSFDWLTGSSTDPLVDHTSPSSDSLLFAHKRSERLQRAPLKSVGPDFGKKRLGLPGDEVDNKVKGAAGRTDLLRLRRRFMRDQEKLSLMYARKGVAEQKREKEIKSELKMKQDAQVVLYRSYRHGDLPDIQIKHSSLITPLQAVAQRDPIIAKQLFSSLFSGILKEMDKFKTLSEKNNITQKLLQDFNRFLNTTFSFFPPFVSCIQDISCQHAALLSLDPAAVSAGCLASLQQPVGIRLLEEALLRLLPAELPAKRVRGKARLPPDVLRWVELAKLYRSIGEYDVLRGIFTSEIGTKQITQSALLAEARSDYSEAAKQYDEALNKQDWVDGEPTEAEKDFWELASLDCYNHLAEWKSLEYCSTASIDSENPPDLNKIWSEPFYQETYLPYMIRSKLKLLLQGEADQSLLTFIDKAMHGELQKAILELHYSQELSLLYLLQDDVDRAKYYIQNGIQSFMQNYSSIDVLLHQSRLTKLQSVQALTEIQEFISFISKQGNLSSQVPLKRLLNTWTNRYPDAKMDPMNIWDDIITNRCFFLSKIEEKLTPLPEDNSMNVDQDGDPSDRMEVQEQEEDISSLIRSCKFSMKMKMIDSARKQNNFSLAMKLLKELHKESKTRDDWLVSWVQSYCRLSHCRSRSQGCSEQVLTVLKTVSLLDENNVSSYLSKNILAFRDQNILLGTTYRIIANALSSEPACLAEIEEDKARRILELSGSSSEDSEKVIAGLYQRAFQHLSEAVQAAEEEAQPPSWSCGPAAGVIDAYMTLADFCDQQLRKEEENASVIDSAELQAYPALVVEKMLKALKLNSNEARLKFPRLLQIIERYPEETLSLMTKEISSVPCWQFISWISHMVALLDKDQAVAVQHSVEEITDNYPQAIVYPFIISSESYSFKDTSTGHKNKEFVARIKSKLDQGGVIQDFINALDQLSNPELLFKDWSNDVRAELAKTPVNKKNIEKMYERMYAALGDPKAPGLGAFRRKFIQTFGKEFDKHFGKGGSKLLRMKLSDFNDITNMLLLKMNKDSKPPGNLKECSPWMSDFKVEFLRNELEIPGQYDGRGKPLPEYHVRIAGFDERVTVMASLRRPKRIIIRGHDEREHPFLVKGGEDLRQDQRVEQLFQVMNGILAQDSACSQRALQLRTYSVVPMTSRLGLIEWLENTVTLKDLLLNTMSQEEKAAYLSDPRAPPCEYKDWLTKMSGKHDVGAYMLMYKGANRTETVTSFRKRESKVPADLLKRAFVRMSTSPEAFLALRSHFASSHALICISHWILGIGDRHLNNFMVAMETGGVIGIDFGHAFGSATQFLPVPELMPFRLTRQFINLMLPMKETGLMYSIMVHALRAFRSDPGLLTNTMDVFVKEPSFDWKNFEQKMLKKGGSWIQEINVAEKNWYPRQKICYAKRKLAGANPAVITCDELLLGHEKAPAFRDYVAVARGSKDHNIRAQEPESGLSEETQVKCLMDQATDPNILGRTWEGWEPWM

Row | Structure (SMILES) | IC50 [1, 3] | IC50 [1, 4] | IC50 [2] | IC50 (PI3K delta (PI3 Kd); [5]) | IC50 (PI3K delta (PI3 Kd); [6]) | Inhibition values (IC50) PI3Ka (PI3Kalpha (PI3Ka)) | IC50 (PI3 Kgamma (PI3 Kg); [7]) | IC50 (mTOR; [8]) | IC50 (PI3 Kbeta (PI3 Kb); [9]) | IC50 (PI3Kalpha (PI3Ka)) | IC50 [1, 10] | PI3Ka (PI3Kalpha (PI3Ka)) | IC50 (PI3 Kgamma (PI3 Kg); [11]) | IC50 (PI3K delta (PI3 Kd); [12]) | IC50 (mTOR; [13]) | IC50 (PI3 Kbeta (PI3 Kb); [14]) | IC50 (mTOR; kinobeads assay, Table 4, read-out: Inhibition values (IC50) mTor)
1 | CCNC(=O)Nc1ccc(-c2nc3c(c(N4CCOC[C@@H]4C)n2)CN(C(=O)OC(C)(C)C)CC3)cc1 [Example 2, (S)-tert-butyl 2-(4-(3-ethylureido)phenyl)-4-(3-methylmorpholino)-7,8-dihydropyrido[4,3-d]pyrimidine-6(5H)-carboxylate] | > 10 µM | > 10 µM | 0.122 µM | > 10 µM | > 10 µM |  |  |  |  |  |  |  |  |  |  |  | 
2 | CCNC(=O)Nc1ccc(-c2nc3c(c(N4CCOC[C@@H]4C)n2)CN(C(=O)CCN(C)C)CC3)cc1 [Example 92, (S)-1-(4-(6-(3-(dimethylamino)propanoyl)-4-(3-methylmorpholino)-5,6,7,8-tetrahydropyrido[4,3-d]pyrimidin-2-yl)phenyl)-3-ethylurea] |  | > 10 µM |  |  | > 10 µM | D (D >10 μM) | > 10 µM | 0.1 to 1 µM | > 10 µM |  |  |  |  |  |  |  | 
3 | CCNC(=O)Nc1ccc(-c2nc3c(c(N4CCOCC4)n2)CN(C(=O)OC(C)(C)C)C3)cc1 [Example 63, tert-butyl 2-(4-(3-ethylureido)phenyl)-4-morpholino-5H-pyrrolo[3,4-d]pyrimidine-6(7H)-carboxylate] | > 10 µM | > 10 µM | 0.046 µM | 1 to 10 µM | 1 to 10 µM |  |  |  |  |  |  |  |  |  |  |  | 
4 | CCOC(=O)N1Cc2nc(-c3ccc(NC(=O)NCC(=O)O)cc3)nc(N3CCOC[C@@H]3C)c2C1 [Example 115, (S)-2-(3-(4-(6-(ethoxycarbonyl)-4-(3-methylmorpholino)-6,7-dihydro-5H-pyrrolo[3,4-d]pyrimidin-2-yl)phenyl)ureido)acetic acid] |  | > 10 µM |  |  | > 10 µM | D (D >10 μM) | > 10 µM | 0.1 to 1 µM | > 10 µM |  |  |  |  |  |  |  | 
5 | C[C@H]1COCCN1c1nc(-c2ccc(NC(=O)NC3CC3)cc2)nc2c1CN(C(=O)CCNC(N)=O)C2 [Example 136, (S)-1-cyclopropyl-3-(4-(4-(3-methylmorpholino)-6-(3-ureidopropanoyl)-6,7-dihydro-5H-pyrrolo[3,4-d]pyrimidin-2-yl)phenyl)urea] |  | > 10 µM |  |  | 1 to 10 µM |  | > 10 µM | < 0.1 µM | 1 to 10 µM | 1 to 10 µM |  |  |  |  |  |  | 
6 | C[C@H]1COCCN1c1nc(-c2ccc(NC(=O)NC3CC3)cc2)nc2c1CN(CCCC(=O)O)C2 [Example 134, (S)-4-(2-(4-(3-cyclopropylureido)phenyl)-4-(3-methylmorpholino)-5H-pyrrolo[3,4-d]pyrimidin-6(7H)-yl)butanoic acid] |  | > 10 µM |  |  | > 10 µM |  | > 10 µM | < 0.1 µM | > 10 µM | 1 to 10 µM |  |  |  |  |  |  | 
7 | CCNC(=O)Nc1cnc(-c2nc3c(c(N4CCOC[C@@H]4C)n2)CN(C(=O)OCC)C3)cn1 [Example 116, (S)-ethyl-2-(5-(3-ethylureido)pyrazin-2-yl)-4-(3-methylmorpholino)-5H-pyrrolo[3,4-d]pyrimidine-6(7H)-carboxylate] |  | > 10 µM |  |  | > 10 µM |  | > 10 µM | 0.1 to 1 µM | > 10 µM | 1 to 10 µM |  |  |  |  |  |  | 
8 | Cl.O=C(Nc1ccc(-c2nc3c(c(N4CCOCC4)n2)CNC3)c(F)c1)NC1CC1 [Example 148, 1-(Cyclopropyl)-3-(3-fluoro-4-(4-morpholino-6,7-dihydro-5H-pyrrolo[3,4-d]pyrimidin-2-yl)phenyl)urea hydrochloride] |  |  |  |  |  |  |  |  |  |  | > 10 µM | D (D >10 μM) | > 10 µM | > 10 µM | < 0.1 µM | > 10 µM | 
9 | CCNC(=O)Nc1ccc(-c2nc3c(c(N4CCOCC4)n2)CN(C(C)=O)C3)cc1 [Example 99, 1-(4-(6-acetyl-4-morpholino-6,7-dihydro-5H-pyrrolo[3,4-d]pyrimidin-2-yl)phenyl)-3-ethylurea] |  | > 10 µM |  |  | 1 to 10 µM |  | > 10 µM | < 0.1 µM | 1 to 10 µM | 1 to 10 µM |  |  |  |  |  |  | 
10 | CCNC(=O)Nc1ccc(-c2nc3c(c(N4CCOC[C@@H]4C)n2)CCN(C)C3)c(C)c1 [Example 109, (S)-1-ethyl-3-(3-methyl-4-(7-methyl-4-(3-methylmorpholino)-5,6,7,8-tetrahydropyrido[3,4-d]pyrimidin-2-yl)phenyl)urea] |  | > 10 µM |  |  | > 10 µM | D (D >10 μM) | > 10 µM | 0.1 to 1 µM | > 10 µM |  |  |  |  |  |  |  | 
11 | C[C@H]1COCCN1c1nc(-c2ccc(NC(N)=O)cc2)nc2c1CNC2 [Example 5, (S)-1-(4-(4-(3-methylmorpholino)-6,7-dihydro-5H-pyrrolo[3,4-d]pyrimidin-2-yl)phenyl)urea] | > 10 µM | > 10 µM |  | 1 to 10 µM | 1 to 10 µM | B (B >0.1 μM < 1 μM) | 0.1 to 1 µM | < 0.1 µM | 1 to 10 µM |  |  |  |  |  |  |  | < 0.1 µM
12 | CC(C)(C)OC(=O)N1Cc2nc(-c3ccc(NC(=O)NC4CC4)cc3F)nc(N3CCOCC3)c2C1 [Example 143, tert-Butyl 2-(4-(3-cyclopropylureido)-2-fluorophenyl)-4-morpholino-5H-pyrrolo[3,4-d]pyrimidine-6(7H)-carboxylate] |  |  |  |  |  |  |  |  |  |  | > 10 µM | D (D >10 μM) | > 10 µM | > 10 µM | < 0.1 µM | > 10 µM | 
